ChEMBL document CHEMBL6078724, “Discovery of the first examples of right open reading frame kinase 2 (RIOK2) molecular glue degraders” (Eur J Med Chem, 2025)
Active and inactive are the calls of the source. No cut-off for these calls is given here.

Experiments:
[1] = target: Serine/threonine-protein kinase RIO2 (Homo sapiens, UniProt Q9BVS4); assay: Inhibition of RIOK2 (unknown origin) ATPase activity incubated for 2 hrs in presence of ATP by ADP-Glo assay
[2] = target: T1, E3 ubiquitin-protein ligase RNF126/Serine/threonine-protein kinase RIO2 (Homo sapiens, UniProt Q9BVS4+Q9BV68); assay: Molecular glue degradation activity at RNF126/RIOK2 in human OCILY3 cells assessed as induction protein degradation by immunoblot analysis; format: cell-based
Target sequence in this assay (Q9BVS4 whole entry): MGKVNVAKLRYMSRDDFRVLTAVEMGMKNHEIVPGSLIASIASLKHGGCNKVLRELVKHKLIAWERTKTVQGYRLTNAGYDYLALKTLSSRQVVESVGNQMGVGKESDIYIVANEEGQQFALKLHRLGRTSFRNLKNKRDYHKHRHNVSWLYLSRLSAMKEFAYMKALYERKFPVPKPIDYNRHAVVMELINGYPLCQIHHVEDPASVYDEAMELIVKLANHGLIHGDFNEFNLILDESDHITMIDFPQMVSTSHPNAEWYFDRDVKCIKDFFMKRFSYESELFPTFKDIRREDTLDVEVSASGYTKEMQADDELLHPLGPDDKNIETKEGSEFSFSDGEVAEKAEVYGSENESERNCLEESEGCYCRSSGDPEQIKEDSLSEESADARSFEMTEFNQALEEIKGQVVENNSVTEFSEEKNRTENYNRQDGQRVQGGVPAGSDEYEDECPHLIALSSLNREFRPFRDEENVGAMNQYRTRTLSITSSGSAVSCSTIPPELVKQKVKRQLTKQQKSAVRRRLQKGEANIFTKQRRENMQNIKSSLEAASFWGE
Target sequence in this assay (Q9BV68 whole entry): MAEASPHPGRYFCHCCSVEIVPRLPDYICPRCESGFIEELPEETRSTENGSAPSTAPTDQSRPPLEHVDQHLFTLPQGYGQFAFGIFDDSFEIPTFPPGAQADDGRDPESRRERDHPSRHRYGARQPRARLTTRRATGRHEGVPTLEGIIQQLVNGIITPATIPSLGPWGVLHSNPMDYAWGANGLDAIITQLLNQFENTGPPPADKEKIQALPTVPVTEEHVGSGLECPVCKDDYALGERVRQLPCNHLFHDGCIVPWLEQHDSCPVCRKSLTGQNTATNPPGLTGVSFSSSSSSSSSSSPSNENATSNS

[3] = target: T1, E3 ubiquitin-protein ligase RNF126/Serine/threonine-protein kinase RIO2; assay: Molecular glue degradation activity at RNF126/RIOK2 in human U-937 cells assessed as induction protein degradation by immunoblot analysis; format: cell-based
Target sequence in this assay (Q9BVS4 whole entry): as the sequence (Q9BVS4 whole entry) above
Target sequence in this assay (Q9BV68 whole entry): as the sequence (Q9BV68 whole entry) above

K562 = assay: Antiproliferative activity against human K562 cells incubated for 72 hrs by CCK8 assay; format: functional, cell-based; conditions: K562, 72 h
[4] = target: T1, E3 ubiquitin-protein ligase RNF126/Serine/threonine-protein kinase RIO2; assay: Molecular glue degradation activity at RNF126/RIOK2 in human U-937 cells assessed as induction protein degradation by immunoblot analysis relative to control; format: cell-based
Target sequence in this assay (Q9BV68 2-311 partner limits assumed): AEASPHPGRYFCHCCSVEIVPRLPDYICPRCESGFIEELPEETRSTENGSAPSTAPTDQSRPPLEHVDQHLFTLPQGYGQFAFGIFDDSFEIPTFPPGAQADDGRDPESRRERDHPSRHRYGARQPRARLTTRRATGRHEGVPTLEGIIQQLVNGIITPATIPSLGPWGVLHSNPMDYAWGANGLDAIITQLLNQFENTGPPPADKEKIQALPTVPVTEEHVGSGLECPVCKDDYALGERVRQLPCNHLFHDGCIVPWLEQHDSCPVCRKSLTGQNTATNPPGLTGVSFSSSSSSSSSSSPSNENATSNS
Target sequence in this assay (Q9BVS4 whole entry): as the sequence (Q9BVS4 whole entry) above

[5] = target: T1, E3 ubiquitin-protein ligase RNF126/Serine/threonine-protein kinase RIO2; assay: Molecular glue degradation activity at RNF126/RIOK2 in human MOLT-4 cells assessed as decrease in mTOR level at 500 nM incubated for 12 hrs by immunoblot analysis; format: cell-based
Target sequence in this assay (Q9BV68 2-311 partner limits assumed): as the sequence (Q9BV68 2-311 partner limits assumed) above
Target sequence in this assay (Q9BVS4 whole entry): as the sequence (Q9BVS4 whole entry) above

[6] = target: T1, E3 ubiquitin-protein ligase RNF126/Serine/threonine-protein kinase RIO2; assay: Molecular glue degradation activity at RNF126/RIOK2 in human MOLT-4 cells assessed as induction protein degradation at 1 uM incubated for 12 hrs by immunoblot analysis; format: cell-based
Target sequence in this assay (Q9BV68 2-311 partner limits assumed): as the sequence (Q9BV68 2-311 partner limits assumed) above
Target sequence in this assay (Q9BVS4 whole entry): as the sequence (Q9BVS4 whole entry) above

MOLT-4 = assay: Induction of cell cycle arrest in human MOLT-4 cells assessed as accumulation at G2/M phase at 900 nM incubated for 24 hrs by PI staining based flow cytometry relative to control; format: functional
[7] = target: T1, E3 ubiquitin-protein ligase RNF126/Serine/threonine-protein kinase RIO2; assay: Molecular glue degradation activity at RNF126/RIOK2 in HEK293 cells assessed as induction protein degradation by immunoblot analysis; format: cell-based
Target sequence in this assay (Q9BVS4 whole entry): as above
Target sequence in this assay (Q9BV68 whole entry): as the sequence (Q9BV68 whole entry) above

[8] = target: T1, E3 ubiquitin-protein ligase RNF126/Serine/threonine-protein kinase RIO2; assay: Molecular glue degradation activity at RNF126/RIOK2 in human MOLT-4 cells assessed as induction protein degradation at 1 uM incubated for 24 hrs by immunoblot analysis relative to control; format: cell-based
Target sequence in this assay (Q9BV68 2-311 partner limits assumed): as the sequence (Q9BV68 2-311 partner limits assumed) above
Target sequence in this assay (Q9BVS4 whole entry): as the sequence (Q9BVS4 whole entry) above

Sequence of Serine/threonine-protein kinase RIO2 (Q9BVS4 whole entry): as above

COc1ccc(-c2ccc3[nH]c(=O)c4nnn(-c5ccc(N6CCN(C(=O)/C=C/C(=O)c7ccc(F)cc7)CC6)c(C(F)(F)F)c5)c4c3c2)cn1
IC50 [1]: 98 nM | DC50 [2]: 450 nM | DC50 [3]: 1300 nM | IC50 (K562): 1140 nM | Emax [4]: 60.4% | Activity [5]: Active | Activity [6]: Active | Activity (MOLT-4): 39.6% | DC50 [7]: > 10000 nM | Emax [8]: 94.8%
